The values that follow are results of earlier work, collected in US10292948B2 (Torrent Pharmaceuticals Limited, priority 2017, dated 2019).

The conditions of data set [1]: pH dependent.

Consider `CC[C@@H](c1cccc(O)c1)[C@@H](C)CN(C)C.Cl` [Tapentadol, 3-[(1R,2R)-3-(dimethylamino)-1-ethyl-2-methylpropyl]phenol], for which the solubility result in data set [1] was “highly soluble”. Besides, the “time of maximum serum concentration” value (after oral dosing) is listed as “around 1.25 hours”. Besides, for the setting “oral administration”, the “administered tapentadol metabolized (first-pass metabolism)” value is given as “about 97%” and the bioavailability is recorded as 32%. Further, the “time after administration at which absorption occurs” value (oral formulations) is on record as “at least 45 minutes”.

By bioavailability is commonly meant the share of a dose that reaches the circulation, judged against a reference dose that is usually intravenous.
